Laboratory results reported in PubChem BioAssay (NCI).
Several values for one entry are separate records, joined by “and”; a condition that tells them apart may be missing. Equal entries are not always repeated.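 Protocol summary: plate cells (96-well), add compound at 5 concentrations, incubate 48 h, interpolate endpoints linearly. GI50 = concentration required for 50% inhibition of growth. Definition used: TGI = concentration required for complete inhibition of growth.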

Assays:
Assay in all cases: NCI anticancer screen, dose series, 48 h
[1] = tested on: MDA-MB-231 breast
[2] = tested on: OVCAR-3 ovarian
[3] = tested on: U251 CNS
[4] = tested on: LOX IMVI melanoma
[5] = tested on: HT29 colon
[6] = tested on: KM12 colon
[7] = tested on: MCF7 breast
[8] = tested on: HOP-62 NSCLC
[9] = tested on: OVCAR-5 ovarian
[10] = tested on: A549 NSCLC
[11] = tested on: EKVX NSCLC
[12] = tested on: UO-31 renal
[13] = tested on: OVCAR-8 ovarian
[14] = tested on: UACC-257 melanoma
[15] = tested on: MALME-3M melanoma
[16] = tested on: HCT-15 colon
[17] = tested on: SK-OV-3 ovarian
[18] = tested on: ACHN renal
[19] = tested on: HL-60(TB) leukemia
[20] = tested on: CCRF-CEM leukemia
[21] = tested on: SK-MEL-2 melanoma
[22] = tested on: DU-145 prostate
[23] = tested on: K-562 leukemia
[24] = tested on: SF-295 CNS
[25] = tested on: NCI-H460 lung
[26] = tested on: 786-0 renal
[27] = tested on: T-47D breast
[28] = tested on: SW-620 colon
[29] = tested on: PC-3 prostate
[30] = tested on: CAKI-1 renal
[31] = tested on: MOLT-4 leukemia
[32] = tested on: SK-MEL-5 melanoma
[33] = tested on: MDA-N
[34] = tested on: OVCAR-4 ovarian
[35] = tested on: SNB-75 CNS
[36] = tested on: A498 renal
[37] = tested on: SF-539 CNS
[38] = tested on: HCT-116 colon
[39] = tested on: SK-MEL-28 melanoma
[40] = tested on: NCI-H23 lung
[41] = tested on: SN12C renal
[42] = tested on: SR leukemia
[43] = tested on: COLO 205 colon
[44] = tested on: HS 578T breast
[45] = tested on: NCI/ADR-RES ovarian
[46] = tested on: TK-10 renal
[47] = tested on: SF-268 CNS
[48] = tested on: SNB-19 CNS
[49] = tested on: IGROV1 ovarian
[50] = tested on: HCC-2998 colon
[51] = tested on: NCI-H522 lung
[52] = tested on: MDA-MB-435
[53] = tested on: RPMI-8226 leukemia
[54] = tested on: HOP-92 NSCLC
[55] = tested on: UACC-62 melanoma
[56] = tested on: BT-549 breast
[57] = tested on: M14 melanoma
[58] = tested on: NCI-H226 lung
[59] = tested on: RXF 393 renal

Cc1ccc(N(C(=O)Nc2ccc(F)c(Cl)c2)C2=NCC(C)S2)cc1 (stereo not drawn)
TGI [1]: > 100 µM
TGI [2]: > 100 µM
TGI [3]: > 100 µM
TGI [4]: > 100 µM
TGI [5]: > 100 µM
TGI [6]: > 100 µM
TGI [7]: 32.6 µM
TGI [8]: > 100 µM
TGI [9]: > 100 µM
TGI [10]: > 100 µM
TGI [11]: > 100 µM
TGI [12]: > 100 µM
TGI [13]: > 100 µM
TGI [14]: > 100 µM
TGI [15]: > 100 µM
TGI [16]: > 100 µM
TGI [17]: > 100 µM
TGI [18]: > 100 µM
TGI [19]: 73.2 µM
TGI [20]: > 100 µM
TGI [21]: > 100 µM
TGI [22]: > 100 µM
TGI [23]: > 100 µM
TGI [24]: > 100 µM
TGI [25]: > 100 µM
TGI [26]: > 100 µM
TGI [27]: > 100 µM
TGI [28]: > 100 µM
TGI [29]: > 100 µM
TGI [30]: > 100 µM
TGI [31]: > 100 µM
TGI [32]: 41 µM
TGI [33]: > 100 µM
TGI [34]: > 100 µM
TGI [35]: > 100 µM
TGI [36]: > 100 µM
TGI [37]: > 100 µM
TGI [38]: > 100 µM
TGI [39]: > 100 µM
TGI [40]: > 100 µM
TGI [41]: > 100 µM
TGI [42]: > 100 µM
TGI [43]: > 100 µM
TGI [44]: > 100 µM
TGI [45]: 73.2 µM
TGI [46]: > 100 µM
TGI [47]: > 100 µM
TGI [48]: > 100 µM
TGI [49]: > 100 µM

C[C@]12C[C@@H](c3ccccc3)Nc3ccccc3N1C(c1ccccc1)=NO2
TGI [1]: > 100 µM
TGI [50]: > 100 µM
TGI [2]: > 100 µM
TGI [51]: 86.4 µM
TGI [52]: 58.5 µM
TGI [3]: > 100 µM
TGI [5]: > 100 µM
TGI [53]: 49.3 µM
TGI [54]: 58.4 µM
TGI [6]: > 100 µM
TGI [7]: > 100 µM
TGI [8]: > 100 µM
TGI [9]: > 100 µM
TGI [10]: > 100 µM
TGI [11]: 79.3 µM
TGI [12]: 89.5 µM
TGI [13]: > 100 µM
TGI [14]: > 100 µM
TGI [15]: > 100 µM
TGI [16]: > 100 µM
TGI [17]: > 100 µM
TGI [18]: > 100 µM
TGI [19]: 71.9 µM
TGI [20]: 74.3 µM
TGI [21]: 76.3 µM
TGI [22]: > 100 µM
TGI [23]: > 100 µM
TGI [24]: > 100 µM
TGI [55]: > 100 µM
TGI [25]: > 100 µM
TGI [56]: 90.3 µM
TGI [26]: > 100 µM
TGI [28]: > 100 µM
TGI [29]: > 100 µM
TGI [30]: > 100 µM
TGI [31]: 43.5 µM
TGI [32]: 30.8 µM
TGI [57]: 93.3 µM
TGI [33]: 68.7 µM
TGI [34]: 81.9 µM
TGI [35]: 69.4 µM
TGI [36]: > 100 µM
TGI [37]: > 100 µM
TGI [38]: > 100 µM
TGI [40]: > 100 µM
TGI [58]: 90.8 µM
TGI [59]: > 100 µM
TGI [41]: > 100 µM
TGI [42]: 34.6 µM
TGI [43]: 34.7 µM
TGI [44]: > 100 µM
TGI [45]: > 100 µM
TGI [46]: > 100 µM
TGI [47]: > 100 µM
TGI [48]: > 100 µM
TGI [49]: > 100 µM

CNC(=O)CC1NC(=O)c2csc(n2)-c2ccc(-c3nc(C4=NC(C(=O)N5CCCC5C(N)=O)CO4)cs3)nc2-c2csc(n2)-c2csc(n2)C(C(C)C)NC(=O)CNC(=O)c2csc(n2)C(C(C)C)NC(=O)c2nc1sc2C (stereo not drawn)
GI50 [1]: > 25 µM
TGI [1]: 2.73 µM and > 25 µM
TGI [50]: 2.31 µM
TGI [2]: 0.937 µM
GI50 [52]: < 0.001 µM
GI50 [3]: > 25 µM
TGI [3]: > 25 µM
GI50 [4]: > 25 µM
TGI [4]: > 25 µM
GI50 [5]: < 0.001 µM
GI50 [53]: < 0.001 µM
GI50 [54]: > 25 µM
TGI [54]: > 25 µM
GI50 [6]: > 25 µM
TGI [6]: 4.34 µM and > 25 µM
GI50 [7]: < 0.001 µM
GI50 [10]: > 25 µM
TGI [10]: > 25 µM
GI50 [11]: > 25 µM
TGI [11]: > 25 µM
GI50 [12]: > 25 µM
TGI [12]: > 25 µM
GI50 [13]: > 25 µM
TGI [13]: > 25 µM
GI50 [14]: > 25 µM
TGI [14]: > 25 µM
TGI [15]: > 25 µM
GI50 [16]: > 25 µM
TGI [16]: > 25 µM
GI50 [17]: > 25 µM
TGI [17]: 6.03 µM and > 25 µM
GI50 [18]: > 25 µM
TGI [18]: > 25 µM
GI50 [19]: < 0.001 µM
GI50 [20]: > 25 µM
TGI [20]: > 25 µM
GI50 [22]: > 25 µM
TGI [22]: > 25 µM
GI50 [23]: > 25 µM
TGI [23]: > 25 µM
GI50 [24]: > 25 µM
TGI [24]: > 25 µM
GI50 [55]: > 25 µM
TGI [55]: > 25 µM
GI50 [25]: > 25 µM
TGI [25]: > 25 µM
GI50 [56]: > 25 µM
TGI [56]: 4.5 µM and > 25 µM
GI50 [26]: > 25 µM
TGI [26]: > 25 µM
GI50 [27]: > 25 µM
TGI [27]: > 25 µM
GI50 [28]: > 25 µM
TGI [28]: > 25 µM
GI50 [30]: > 25 µM
TGI [30]: > 25 µM
GI50 [31]: 1.63 µM
TGI [31]: > 25 µM
GI50 [32]: > 25 µM
TGI [32]: > 25 µM
GI50 [33]: < 0.001 µM
GI50 [34]: > 25 µM
TGI [34]: > 25 µM
GI50 [35]: > 25 µM
GI50 [36]: > 25 µM
TGI [36]: 5.08 µM and > 25 µM
GI50 [37]: > 25 µM
GI50 [38]: > 25 µM
TGI [38]: > 25 µM
TGI [39]: > 25 µM
GI50 [40]: > 25 µM
GI50 [58]: > 25 µM
TGI [58]: > 25 µM
GI50 [59]: > 25 µM
TGI [59]: > 25 µM
GI50 [41]: > 25 µM
TGI [41]: > 25 µM
GI50 [42]: < 0.001 µM
GI50 [43]: > 25 µM
GI50 [44]: < 0.001 µM
GI50 [45]: > 25 µM
TGI [45]: > 25 µM
GI50 [46]: > 25 µM
GI50 [47]: > 25 µM
TGI [47]: > 25 µM
GI50 [48]: > 25 µM
TGI [48]: > 25 µM
GI50 [49]: > 25 µM
